From ChEMBL document CHEMBL1770073, “Synthesis of cinnamoyl ketoamides as hybrid structures of antioxidants and calpain inhibitors” (Bioorg Med Chem Lett, 2011)

Assays:
[1] = Antioxidant activity assessed as xanthine-xanthine oxidase generated superoxide anion scavenging after 20 mins; format: functional
[2] = test system: Radical scavenging activity; assay: Antioxidant activity assessed as DPPH free radical scavenging activity after 30 mins; format: functional
Liver = assay: Antioxidant activity in rat liver homogenates assessed as inhibition of lipid peroxidation by measuring formation of thiobarbituric acid-reactive substance after 30 mins; format: functional, tissue-based; conditions: 0.5 h
[3] = biological target: T1, Calpain-1 catalytic subunit (Homo sapiens, UniProt P07384); assay: Inhibition of human erythrocytes mu-calpain using Suc-Leu-Tyr-AMC fluorogenic substrate after 30 mins by spectrofluorimetry
T1 sequence (P07384 whole entry): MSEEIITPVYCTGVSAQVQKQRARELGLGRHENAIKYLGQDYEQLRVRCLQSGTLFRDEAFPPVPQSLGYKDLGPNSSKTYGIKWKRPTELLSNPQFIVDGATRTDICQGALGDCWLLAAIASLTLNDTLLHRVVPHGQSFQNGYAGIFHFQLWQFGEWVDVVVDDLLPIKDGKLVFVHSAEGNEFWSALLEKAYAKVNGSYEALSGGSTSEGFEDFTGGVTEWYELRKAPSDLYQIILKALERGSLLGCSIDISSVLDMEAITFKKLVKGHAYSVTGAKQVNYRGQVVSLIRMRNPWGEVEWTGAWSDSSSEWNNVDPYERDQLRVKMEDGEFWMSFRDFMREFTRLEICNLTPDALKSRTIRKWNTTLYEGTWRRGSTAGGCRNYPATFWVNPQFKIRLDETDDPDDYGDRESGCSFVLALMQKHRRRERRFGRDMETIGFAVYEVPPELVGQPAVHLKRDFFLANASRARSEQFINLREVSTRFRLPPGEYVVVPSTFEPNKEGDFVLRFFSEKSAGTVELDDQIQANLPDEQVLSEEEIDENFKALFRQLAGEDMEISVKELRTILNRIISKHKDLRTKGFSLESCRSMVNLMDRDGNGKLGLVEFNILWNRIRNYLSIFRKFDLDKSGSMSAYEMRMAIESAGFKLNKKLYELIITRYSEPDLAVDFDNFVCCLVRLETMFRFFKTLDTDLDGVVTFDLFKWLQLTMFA

| Structure (SMILES) | IC50 [1] | IC50 [2] | IC50 (Liver) | IC50 [3] |
| --- | --- | --- | --- | --- |
| O=C(/C=C/c1ccc(O)c(O)c1)N[C@@H](Cc1ccccc1)C(=O)C(=O)NCc1ccccc1 | 31.2 µM | 40.4 µM | 7.53 µM | 6.07 µM |
| Cc1c(C(=O)N[C@@H](Cc2ccccc2)C(=O)C(N)=O)oc2ccccc2c1=O | > 100 µM | > 100 µM | > 100 µM | 0.07 µM |
| COc1ccc(OC)c(C(=O)CCC(=O)N[C@@H](Cc2ccccc2)C(=O)C(N)=O)c1 | > 100 µM | > 100 µM | > 100 µM | – |
| CC/C(=C\c1ccc(O)c(O)c1)C(=O)N[C@@H](Cc1ccccc1)C(=O)C(=O)NCc1ccccc1 (stereo in doubt) | 15.5 µM | 45.5 µM | 6.09 µM | 0.61 µM |
| CC/C(=C\c1ccc(O)c(O)c1)C(=O)N[C@@H](Cc1ccccc1)C(=O)C(=O)NCCc1ccc(OC)cc1 (stereo in doubt) | 29.2 µM | 46.1 µM | 6.4 µM | 0.46 µM |
| CCC/C(=C\c1ccc(O)c(O)c1)C(=O)N[C@@H](Cc1ccccc1)C(=O)C(=O)NCc1ccccc1 (stereo in doubt) | 27.1 µM | 42.2 µM | 6.15 µM | 0.36 µM |
| CCC/C(=C\c1ccc(O)c(O)c1)C(=O)N[C@@H](Cc1ccccc1)C(=O)C(=O)NCCc1ccc(OC)cc1 (stereo in doubt) | 38 µM | 48.6 µM | 5.71 µM | 0.13 µM |
| CCCC/C(=C\c1ccc(O)c(O)c1)C(=O)N[C@@H](Cc1ccccc1)C(=O)C(=O)NCc1ccccc1 (stereo in doubt) | 30.9 µM | 36.7 µM | 7.34 µM | 0.67 µM |
| CCCC/C(=C\c1ccc(O)c(O)c1)C(=O)N[C@@H](Cc1ccccc1)C(=O)C(=O)NCCc1ccc(OC)cc1 (stereo in doubt) | 41.4 µM | 38.9 µM | 5.88 µM | 0.5 µM |
| CC(C)C/C(=C\c1ccc(O)c(O)c1)C(=O)N[C@@H](Cc1ccccc1)C(=O)C(=O)NCc1ccccc1 (stereo in doubt) | 41.7 µM | 44.6 µM | 6.06 µM | 0.32 µM |
| CCCC/C(=C\c1ccc(O)c(OC)c1)C(=O)N[C@@H](Cc1ccccc1)C(=O)C(=O)NCCc1ccc(OC)cc1 (stereo in doubt) | > 100 µM | > 100 µM | 36.1 µM | 0.63 µM |
| CCCC/C(=C\c1ccc(OC)c(OC)c1)C(=O)N[C@@H](Cc1ccccc1)C(=O)C(=O)NCCc1ccc(OC)cc1 (stereo in doubt) | > 100 µM | > 100 µM | > 100 µM | 1.38 µM |
| O=C1O[C@H]([C@@H](O)CO)C(O)=C1O [ASCORBIC ACID] | > 100 µM | 30.8 µM | > 100 µM | – |
| Cc1c(C)c2c(c(C)c1O)CCC(C)(C(=O)O)O2 (stereo unspecified) [TROLOX] | – | – | 71.4 µM | – |
